Experimental data reported in patent publication US9757464B2, “Pharmaceutical compositions of dextran polymer derivatives” (Bend Research, Inc., priority 2009, dated 2017).

What was measured:
[1] = Syringe dissolution test (in vitro dissolution performance); assay type: physicochemical; conditions: pH 7.4 buffer; for Concentration: 50 μg/mL dosed
Description: This solution was adjusted to pH 7.42 by adding sufficient 0.1 N HCl. […] After adding the dispersion and the buffer to the syringe, the syringe was periodically inverted to mix the components in the syringe. The syringe was fitted with a 0.45 μm Supor PES syringe filter (manufacturer, city, state). After 5 minutes, 1 mL of fluid was pushed through the filter into a 2-mL centrifuge tube. A 0.5-mL aliquot of methanol was then added to the centrifuge tube, which was then inverted to mix the contents in the tube, followed by centrifugation at 13,000 rpm for 1 minute. The supernatant was transferred to another centrifuge tube. This procedure was repeated for all timepoints. Samples were frozen in liquid nitrogen and place on a lyophilizer for 3 days to remove all liquids.

[2] = Tg of amorphous active agent by DSC; assay type: physicochemical

Row | Concentration ([1]; 0 min) [ng/mL] | Concentration ([1]; 5 min) [ng/mL] | Concentration ([1]; 15 min) [ng/mL] | Concentration ([1]; 30 min) [ng/mL] | Concentration ([1]; 90 min) [ng/mL] | Concentration ([1]; 180 min) [ng/mL] | Cmax ([1]; syringe dissolution test) [ng/mL] | Tg of amorphous active agent [2] [°C] | Compound
1 | 0 | 250 | 300 | 100 | 240 | 370 | 370 | – | CCC(=O)O[C@]1(C(=O)SCF)[C@H](C)C[C@H]2[C@@H]3C[C@H](F)C4=CC(=O)C=C[C@]4(C)[C@@]3(F)[C@@H](O)C[C@@]21C [Control 1]
2 | – | – | – | – | – | – | – | 84 | CCC(=O)O[C@]1(C(=O)SCF)[C@H](C)C[C@H]2[C@@H]3C[C@H](F)C4=CC(=O)C=C[C@]4(C)[C@@]3(F)[C@@H](O)C[C@@]21C [Active Agent 1, S-(fluoromethyl) 6α,9-difluoro-11β,17-dihydroxy-16α-methyl-3-oxoandrosta-1,4-diene-17β-carbothioate, 17-propionate]
